According to patent US8377935B2, “Substituted aminopropenyl piperidine or morpholine derivatives as novel inhibitors of histone deacetylase” (Janssen Pharmaceutica N.V., priority 2005, dated 2013):

Experiments:
[1] = Metabolic stability with rat hepatocytes cell culture; type: in vitro ADME; conditions: rat hepatocyte cell cultures, 5 μM
Description: Metabolism of drugs means that a lipid-soluble xenobiotic or endobiotic compound is enzymatically transformed into (a) polar, water-soluble, and excretable metabolite(s). The major organ for drug metabolism is the liver. […] However, some metabolites may have enhanced activity or toxic effects. Thus drug metabolism may include both “detoxication” and “toxication” processes. One of the major enzyme systems that determine the organism's capability of dealing with drugs and chemicals is represented by the cytochrome P450 monooxygenases, which are NADPH dependent enzymes. Metabolic stability of compounds can be determined in vitro with the use of subcellular human tissue (see example C.5.a.). Here metabolic stability of the compounds is expressed as % of drug metabolised after 15 minutes incubation of these compounds with microsomes. Quantitation of the compounds was determined by LC-MS analysis. Metabolic stability of compounds can also be determined by calculating the half live of compounds in rat hepatocyte cells (see example C.5.b.). […]
Samples were prepared for LC-MS by addition of two volumes of DMSO. […] Of the resulting supernatant 50 μl was analysed by LC-MS. […]
Total injection volume of samples was 50 μL. […] The mass spectrometer was operated in positive ion mode in SIM adjusted to the mass of […] with a scan width of 1 Da for quantification purposes. […]

p21 promoter = assay: p21 induction capacity, cellular method (ZsGreen reporter in A2780 clones); type: cell-based, human; conditions: A2780 clones with p21 1300 bp promoter-ZsGreen reporter, 24 hours treatment, percentage of control
Description: A first method tests the capacity of compounds to induce p21 as the consequence of HDAC inhibition at the cellular level. […] The reporter gene is a fluorescent protein and the expression of the reporter gene is measured as the amount of fluorescent light emitted (see example C.6.a.). The second method is an in vivo method wherein mice are used for screening the pharmaceutical activity of a compound. The above described stably transformed tumour cells can be administered to mice in an amount sufficient to effect production of a tumour. After the tumour cells had sufficient time to form a tumour, a potentially active compound can be administered to the animals and the effect of said compound On the tumour cells is evaluated by measuring the expression of the reporter gene. […]
The A2780 selected clones were expanded and seeded at 10000 cells per well into 96-well plates. […] The p21 promoter activation leading to ZsGreen production and thus fluorescence, was monitored by the Ascent Fluoroskan (Thermo Labsystems, Brussels, Belgium).
For each experiment, controls (containing no drug) and a blank incubation (containing no cells or drugs) were run in parallel. […] For each sample, the value for p21 induction was expressed as the percentage of the value for p21 present in the control. […]

in vitro half-live [1]: 103 min
SMILES: O=C(NO)c1cnc(N2CCC(CNC(/C=C/c3ccccc3)CO)CC2)nc1 (centres unmarked) [Compound 1]
p21 induction (p21 promoter): significant induction (Percentage induction higher than 130% was defined as significant induction)
